Key:
Sas6T = Sas6T (Ruminococcus bromii, UniProt A0ABF7PL48); test: Isothermal titration calorimetry with Sas6T; details: for binding by ITC (in words) / n (binding stoichiometry): ITC; for n (binding stoichiometry): fitted n
BIg–RbCBM74–BIg [1] = target: T1, BIg–RbCBM74–BIg (Ruminococcus bromii, UniProt A0ABF7PL48); test: Isothermal titration calorimetry with BIg–RbCBM74–BIg
RbCBM26 = RbCBM26 (Ruminococcus bromii, UniProt A0ABF7PL48); test: Isothermal titration calorimetry with RbCBM26; details: for binding by ITC (in words) / n (binding stoichiometry): ITC; for n (binding stoichiometry): fitted n
BIg–RbCBM74–BIg [2] = target: T1, BIg–RbCBM74–BIg; test: Native mass spectrometry titration, BIg–RbCBM74–BIg; details: native MS, 5 μM protein, 200 mM ammonium acetate
[3] = test system: H289A site-directed mutant within the BIg–RbCBM74–BIg construct; test: Isothermal titration calorimetry with H289A mutant; details: ITC
[4] = test system: F326A site-directed mutant within the BIg–RbCBM74–BIg construct; test: Isothermal titration calorimetry with F326A mutant; details: ITC
[5] = test system: W373A site-directed mutant within the BIg–RbCBM74–BIg construct; test: Isothermal titration calorimetry with W373A mutant
[6] = target: previously studied CBM26 modules; details: read-out: dissociation constant (Kd) range; cited from earlier work

Sequence of RbCBM26 (A0ABF7PL48 31-129 limits assumed): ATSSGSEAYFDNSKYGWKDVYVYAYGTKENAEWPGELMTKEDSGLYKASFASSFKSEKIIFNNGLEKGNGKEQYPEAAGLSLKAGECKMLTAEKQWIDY
Sequence of Sas6T (A0ABF7PL48 31-665 limits assumed): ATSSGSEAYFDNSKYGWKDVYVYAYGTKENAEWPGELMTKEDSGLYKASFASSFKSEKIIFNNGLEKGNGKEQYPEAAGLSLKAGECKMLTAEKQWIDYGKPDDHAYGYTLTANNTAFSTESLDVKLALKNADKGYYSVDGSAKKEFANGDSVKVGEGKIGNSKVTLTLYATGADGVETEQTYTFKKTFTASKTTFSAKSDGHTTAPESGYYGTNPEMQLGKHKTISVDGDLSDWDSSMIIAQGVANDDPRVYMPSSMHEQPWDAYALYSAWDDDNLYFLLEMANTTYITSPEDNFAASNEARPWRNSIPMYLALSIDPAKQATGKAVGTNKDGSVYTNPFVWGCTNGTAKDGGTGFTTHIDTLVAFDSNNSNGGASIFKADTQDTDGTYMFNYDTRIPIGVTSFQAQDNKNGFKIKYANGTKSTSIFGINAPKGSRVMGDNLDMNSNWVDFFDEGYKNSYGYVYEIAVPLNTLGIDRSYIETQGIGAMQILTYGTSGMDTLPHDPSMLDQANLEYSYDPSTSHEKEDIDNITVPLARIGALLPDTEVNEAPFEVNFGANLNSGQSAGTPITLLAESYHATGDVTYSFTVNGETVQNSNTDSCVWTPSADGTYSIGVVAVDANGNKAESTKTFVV
T1 sequence (A0ABF7PL48 134-665 limits assumed): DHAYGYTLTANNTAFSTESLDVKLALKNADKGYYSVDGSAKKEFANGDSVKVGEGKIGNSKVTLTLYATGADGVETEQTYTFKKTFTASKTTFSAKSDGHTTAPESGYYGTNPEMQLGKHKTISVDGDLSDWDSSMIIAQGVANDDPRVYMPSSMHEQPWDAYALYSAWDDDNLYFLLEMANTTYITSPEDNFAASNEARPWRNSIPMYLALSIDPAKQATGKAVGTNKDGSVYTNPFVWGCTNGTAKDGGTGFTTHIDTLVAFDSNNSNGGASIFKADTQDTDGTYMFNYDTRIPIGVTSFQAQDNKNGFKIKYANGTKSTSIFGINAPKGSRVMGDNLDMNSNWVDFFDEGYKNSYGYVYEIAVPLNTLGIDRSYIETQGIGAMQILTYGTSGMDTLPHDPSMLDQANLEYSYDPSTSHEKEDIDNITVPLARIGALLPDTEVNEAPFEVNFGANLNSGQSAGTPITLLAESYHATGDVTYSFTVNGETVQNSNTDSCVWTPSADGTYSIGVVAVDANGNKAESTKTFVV

OC[C@H]1O[C@H](OC[C@H]2O[C@H](O[C@H]3[C@H](O)[C@@H](O)[C@@H](O[C@H]4[C@H](O)[C@@H](O)[C@@H](OC[C@H]5O[C@H](O[C@H]6[C@H](O)[C@@H](O)[C@@H](O[C@H]7[C@H](O)[C@@H](O)C(O)O[C@@H]7CO)O[C@@H]6CO)[C@H](O)[C@@H](O)[C@@H]5O)O[C@@H]4CO)O[C@@H]3CO)[C@H](O)[C@@H](O)[C@@H]2O)[C@H](O)[C@@H](O)[C@@H]1O (stereo partly drawn) [glucosyl-α1,6-maltotriosyl-α 1,6-maltotriose]
binding by ITC (in words) (Sas6T): None of the constructs bound
binding by ITC (in words) (BIg–RbCBM74–BIg [1]): None of the constructs bound
binding by ITC (in words) (RbCBM26): None of the constructs bound

OC[C@H]1O[C@H](O[C@H]2[C@H](O)[C@@H](O)[C@@H](O[C@H]3[C@H](O)[C@@H](O)[C@@H](O[C@H]4[C@H](O)[C@@H](O)[C@@H](O[C@H]5[C@H](O)[C@@H](O)[C@@H](O[C@H]6[C@H](O)[C@@H](O)[C@@H](O[C@H]7[C@H](O)[C@@H](O)[C@@H](O[C@H]8[C@H](O)[C@@H](O)[C@@H](O[C@H]9[C@H](O)[C@@H](O)[C@@H](O[C@H]%10[C@H](O)[C@@H](O)[C@@H](O[C@H]%11[C@H](O)[C@@H](O)[C@@H](O[C@H]%12[C@H](O)[C@@H](O)[C@@H](O[C@H]%13[C@H](O)[C@@H](O)[C@@H](O[C@H]%14[C@H](O)[C@@H](O)C(O)O[C@@H]%14CO)O[C@@H]%13CO)O[C@@H]%12CO)O[C@@H]%11CO)O[C@@H]%10CO)O[C@@H]9CO)O[C@@H]8CO)O[C@@H]7CO)O[C@@H]6CO)O[C@@H]5CO)O[C@@H]4CO)O[C@@H]3CO)O[C@@H]2CO)[C@H](O)[C@@H](O)[C@@H]1O (stereo partly shown) [G14, maltotetradecaose]
Kd (BIg–RbCBM74–BIg [2]): 1.29 ± 0.1 µM

OC[C@H]1O[C@@H]2O[C@H]3[C@H](O)[C@@H](O)[C@@H](O[C@H]4[C@H](O)[C@@H](O)[C@@H](O[C@H]5[C@H](O)[C@@H](O)[C@@H](O[C@H]6[C@H](O)[C@@H](O)[C@@H](O[C@H]7[C@H](O)[C@@H](O)[C@@H](O[C@H]1[C@H](O)[C@H]2O)O[C@@H]7CO)O[C@@H]6CO)O[C@@H]5CO)O[C@@H]4CO)O[C@@H]3CO [ACX, α-cyclodextrin]
n (binding stoichiometry) (Sas6T): 1.0 ± 0.4
binding by ITC (in words) (BIg–RbCBM74–BIg [1]): no detectable affinity
binding by ITC (in words) (RbCBM26): binds
n (binding stoichiometry) (RbCBM26): 0.8 ± 0.13

OC[C@H]1O[C@H](O[C@H]2[C@H](O)[C@@H](O)[C@@H](O[C@H]3[C@H](O)[C@@H](O)[C@@H](O[C@H]4[C@H](O)[C@@H](O)[C@@H](O[C@H]5[C@H](O)[C@@H](O)[C@@H](O[C@H]6[C@H](O)[C@@H](O)[C@@H](O[C@H]7[C@H](O)[C@@H](O)[C@@H](O[C@H]8[C@H](O)[C@@H](O)C(O)O[C@@H]8CO)O[C@@H]7CO)O[C@@H]6CO)O[C@@H]5CO)O[C@@H]4CO)O[C@@H]3CO)O[C@@H]2CO)[C@H](O)[C@@H](O)[C@@H]1O (stereo partly shown) [G8, maltooctaose]
Kd (Sas6T): 496 ± 260 µM
binding by ITC (in words) (Sas6T): in the hundreds of μM
Kd (RbCBM26): 285 ± 84 µM

OC[C@H]1O[C@H](O[C@H]2[C@H](O)[C@@H](O)[C@@H](O[C@H]3[C@H](O)[C@@H](O)[C@@H](O[C@H]4[C@H](O)[C@@H](O)[C@@H](O[C@H]5[C@H](O)[C@@H](O)[C@@H](O[C@H]6[C@H](O)[C@@H](O)[C@@H](O[C@H]7[C@H](O)[C@@H](O)[C@@H](O[C@H]8[C@H](O)[C@@H](O)[C@@H](O[C@H]9[C@H](O)[C@@H](O)[C@@H](O[C@H]%10[C@H](O)[C@@H](O)C(O)O[C@@H]%10CO)O[C@@H]9CO)O[C@@H]8CO)O[C@@H]7CO)O[C@@H]6CO)O[C@@H]5CO)O[C@@H]4CO)O[C@@H]3CO)O[C@@H]2CO)[C@H](O)[C@@H](O)[C@@H]1O (stereo partly shown) [G10, maltodecaose]
n (binding stoichiometry) (Sas6T): 0.8 ± 0.07
n (binding stoichiometry) (BIg–RbCBM74–BIg [1]; ITC, fitted n): 0.9 ± 0.20
n (binding stoichiometry) (RbCBM26): 0.7 ± 0.21
decrease in affinity relative to BIg–RbCBM74–BIg [3]: 10–20 fold
decrease in affinity relative to BIg–RbCBM74–BIg [4]: 10–20 fold
binding by ITC (in words) [5]: lost binding
Kd (BIg–RbCBM74–BIg [2]): 2.16 ± 0.53 µM

OC[C@H]1O[C@@H]2O[C@H]3[C@H](O)[C@@H](O)[C@@H](O[C@H]4[C@H](O)[C@@H](O)[C@@H](O[C@H]5[C@H](O)[C@@H](O)[C@@H](O[C@H]6[C@H](O)[C@@H](O)[C@@H](O[C@H]7[C@H](O)[C@@H](O)[C@@H](O[C@H]8[C@H](O)[C@@H](O)[C@@H](O[C@H]1[C@H](O)[C@H]2O)O[C@@H]8CO)O[C@@H]7CO)O[C@@H]6CO)O[C@@H]5CO)O[C@@H]4CO)O[C@@H]3CO [β-cyclodextrin]
Kd [6]: 350 to 600 µM

maltoheptaose [G7]
binding by ITC (in words) (Sas6T): in the hundreds of μM
binding by ITC (in words) (BIg–RbCBM74–BIg [1]): no detectable affinity
binding by ITC (in words) (RbCBM26): binds
